This is an account of results in the supplement of paper PMC10307832.

Common to all, as to assay: relative viability (nuclei count vs DMSO), 5 days (fraction); higher = more cells survive
Compound in experiment [1]: O=c1[nH]cc(F)c(=O)[nH]1 [5-Fluorouracil] + Cc1nc(Nc2ncc(C(=O)Nc3c(C)cccc3Cl)s2)cc(N2CCN(CCO)CC2)n1 [Dasatinib] (partner 0.075 µM)
The procedure, abridged: (§1)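 The day after seeding in 1536-well plates, lung cancer cell lines were treated by pin tool with a single drug, or with a fixed anchor-drug dose together with five library-drug doses (not always all listed) in √10 steps. After 5 days, a combined fix-and-stain solution (final 0.05% Triton X-100, 1% formaldehyde, 1 ug/ml Hoechst) was added. Nuclei counted on 4× images gave relative viability as treated counts over vehicle counts, reported as the median of duplicate plates.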

Compound in experiment [2]: O=c1[nH]cc(F)c(=O)[nH]1 [5-Fluorouracil] + C[C@]1(O)C[C@@H](c2nc(-c3ccc4ccc(-c5ccccc5)nc4c3)c3c(N)nccn32)C1 [Linsitinib] (partner 1 µM)
The procedure, abridged: as §1

Compound in experiment [3]: CN[C@@H]1C[C@H]2O[C@@](C)([C@@H]1OC)n1c3ccccc3c3c4c(c5c6ccccc6n2c5c31)C(=O)NC4 [Staurosporine] + Cc1cc(Nc2cc(N3CCN(C)CC3)nc(Sc3ccc(NC(=O)C4CC4)cc3)n2)n[nH]1 [Tozasertib] (partner 0.1 µM)
The essentials:
as §1

Compound in the experiment “Sulindac + Luminespib”: CC1=C(CC(=O)O)c2cc(F)ccc2/C1=C\c1ccc([S+](C)[O-])cc1 [Sulindac] + CCNC(=O)c1noc(-c2cc(C(C)C)c(O)cc2O)c1-c1ccc(CN2CCOCC2)cc1 [Luminespib] (partner 0.01 µM)
The essentials:
as §1

For UMC-11, the relative viability in experiment [1] (first compound 0.02 µM) is 0.52; in experiment [1] (first compound 0.2 µM) it was 0.467; in experiment [1] (first compound 0.6325 µM) it was 0.438; in experiment [1] (first compound 2 µM) it was 0.358; in experiment [2] (first compound 0.02 µM), 0.969; in experiment [2] (first compound 0.2 µM), 0.674. The relative viability in experiment [2] (first compound 0.6325 µM) came out at 0.512; in experiment [2] (first compound 2 µM), 0.363; in experiment [3] (first compound 0.005 µM) it was 0.189; in experiment [3] (first compound 0.01581 µM) it was 0.161; in experiment [3] (first compound 0.05 µM), 0.145; in experiment [3] (first compound 0.1581 µM), 0.127. The relative viability in experiment [3] (first compound 0.5 µM) amounted to 0.122; with Sulindac + Luminespib (first compound 0.08 µM), 1.27; in the experiment with Sulindac + Luminespib (first compound 0.253 µM) it was 1.12; in the experiment with Sulindac + Luminespib (first compound 0.8 µM) it was 0.717; with Sulindac + Luminespib (first compound 2.53 µM), 1.01; with Sulindac + Luminespib (first compound 8 µM) it was 1.13.
